What was measured:
Assay in all cases: FLIPR calcium assay, cells with promiscuous G protein transfected with bitter receptor cDNA
Assay type in all cases: cell-based
Conditions in all cases: responsive if cellular response of >10% over baseline, Fluo4-AM
[1] = target: T1, T2R receptor SEQ ID NO: 3 (S3) (Homo sapiens, UniProt Q9NYW0, T156M)
T1 construct: expressed in transfected cells; host or cells: cells expressing a promiscuous G protein (e.g., G16g44)
T1 sequence (Q9NYW0 1-307 T156M): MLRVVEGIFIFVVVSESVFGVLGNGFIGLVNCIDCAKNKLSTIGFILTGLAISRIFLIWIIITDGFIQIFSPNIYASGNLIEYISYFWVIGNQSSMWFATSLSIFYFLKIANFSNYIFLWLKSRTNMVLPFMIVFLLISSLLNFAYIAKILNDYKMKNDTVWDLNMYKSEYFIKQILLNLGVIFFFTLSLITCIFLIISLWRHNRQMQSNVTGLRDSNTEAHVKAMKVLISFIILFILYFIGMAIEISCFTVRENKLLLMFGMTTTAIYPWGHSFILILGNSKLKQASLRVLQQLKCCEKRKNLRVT
Method: (§1) Cells expressing a promiscuous G protein (e.g., G16g44) were transfected with vectors encoding 22 functional bitter receptor cDNAs, with one receptor per transfection. The cells were transfected directly in 384-well format high-density plates and incubated for 28 hours. Later, cells were loaded with the Ca-specific dye Fluo4-AM. After an incubation of 60 minutes, excess dye is washed off, and cells are stimulated with respective bitter agonists while simultaneously recording changes in intracellular fluorescence using a FLIPR instrument.
(§2) The above protocol was carried out using 94 different active pharmaceutical ingredients (APIs) that span a wide range of different APIs having a diversity of chemical structures. A particular T2R receptor was identified as being responsive to a particular API if it triggered a cellular response of >10% over baseline.

[2] = target: T2, T2R receptor SEQ ID NO: 6 (S6) (Homo sapiens, UniProt P59540)
T2 construct: expressed in transfected cells; host or cells: cells expressing a promiscuous G protein (e.g., G16g44)
T2 sequence (P59540 1-309): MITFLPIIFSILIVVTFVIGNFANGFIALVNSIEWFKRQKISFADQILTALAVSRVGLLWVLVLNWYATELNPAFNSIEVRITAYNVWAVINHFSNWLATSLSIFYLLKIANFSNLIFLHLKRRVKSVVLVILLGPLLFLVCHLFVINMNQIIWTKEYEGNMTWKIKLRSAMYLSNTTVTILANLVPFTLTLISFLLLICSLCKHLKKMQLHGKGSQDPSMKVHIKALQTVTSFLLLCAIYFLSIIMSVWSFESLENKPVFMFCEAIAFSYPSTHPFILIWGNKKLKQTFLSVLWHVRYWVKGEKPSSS
Method: as §1, §2

[3] = target: T3, T2R receptor SEQ ID NO: 4 (S4) (Homo sapiens, UniProt Q9NYV8)
T3 construct: expressed in transfected cells; host or cells: cells expressing a promiscuous G protein (e.g., G16g44)
T3 sequence (Q9NYV8 1-317): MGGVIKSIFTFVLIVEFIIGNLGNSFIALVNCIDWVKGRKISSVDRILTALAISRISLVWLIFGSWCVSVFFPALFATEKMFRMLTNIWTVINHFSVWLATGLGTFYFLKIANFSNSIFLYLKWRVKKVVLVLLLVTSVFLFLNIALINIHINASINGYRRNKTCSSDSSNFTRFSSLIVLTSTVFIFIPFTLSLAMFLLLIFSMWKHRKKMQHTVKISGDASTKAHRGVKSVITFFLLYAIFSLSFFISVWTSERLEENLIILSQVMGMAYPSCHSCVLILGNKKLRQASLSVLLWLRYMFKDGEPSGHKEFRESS
Method: as §1, §2

Row | Compound | S3 positive response of T2R receptor to API [1] | S6 positive response of T2R receptor to API [2] | S4 positive response of T2R receptor to API [3]
1 | CN1CCCC(n2nc(Cc3ccc(Cl)cc3)c3ccccc3c2=O)CC1 (stereo not drawn) [Azelastine] | + (a “+” to indicate whether a particular T2R receptor showed a positive response to a particular API) | + (a “+” to indicate whether a particular T2R receptor showed a positive response to a particular API) | 
2 | CCCC(C)(COC(N)=O)COC(=O)NC(C)C (stereo not drawn) [Carisoprodol] |  |  | + (a “+” to indicate whether a particular T2R receptor showed a positive response to a particular API)
3 | CCn1cc(C(=O)O)c(=O)c2cc(F)c(N3CCNCC3)nc21 [Enoxacin] |  | + (a “+” to indicate whether a particular T2R receptor showed a positive response to a particular API) | 
4 | Clc1ccc(COC(Cn2ccnc2)c2ccc(Cl)cc2Cl)c(Cl)c1 (stereo not drawn) [Micronazole] |  |  | + (a “+” to indicate whether a particular T2R receptor showed a positive response to a particular API)
5 | Cc1cccn2c(=O)c(-c3nnn[nH]3)cnc12 [Pemirolast] |  |  | + (a “+” to indicate whether a particular T2R receptor showed a positive response to a particular API)
6 | COc1ccc(-n2nc(C(N)=O)c3c2C(=O)N(c2ccc(N4CCCCC4=O)cc2)CC3)cc1 [Apixaban] | + (a “+” to indicate whether a particular T2R receptor showed a positive response to a particular API) |  | 
7 | O=C(O)c1cccnc1Nc1cccc(C(F)(F)F)c1 [Niflumic Acid] |  |  | + (a “+” to indicate whether a particular T2R receptor showed a positive response to a particular API)
8 | Cc1cccc(Nc2ccccc2C(=O)O)c1C [Mefenamic Acid] |  |  | + (a “+” to indicate whether a particular T2R receptor showed a positive response to a particular API)
9 | Nc1ccc(S(=O)(=O)c2ccc(N)cc2)cc1 [Dapsone] | + (a “+” to indicate whether a particular T2R receptor showed a positive response to a particular API) |  | 
10 | Cn1cnc([N+](=O)[O-])c1Sc1ncnc2nc[nH]c12 [Azathioprine] | + (a “+” to indicate whether a particular T2R receptor showed a positive response to a particular API) | + (a “+” to indicate whether a particular T2R receptor showed a positive response to a particular API) | 
11 | COc1ccc(Cc2nccc3cc(OC)c(OC)cc23)cc1OC [Papaverine] | + (a “+” to indicate whether a particular T2R receptor showed a positive response to a particular API) |  | + (a “+” to indicate whether a particular T2R receptor showed a positive response to a particular API)
12 | O=C(O)c1ccccc1Nc1cccc(C(F)(F)F)c1 [Flufenamic Acid] |  |  | + (a “+” to indicate whether a particular T2R receptor showed a positive response to a particular API)
13 | O=C(CCCN1CCC(O)(c2ccc(Cl)cc2)CC1)c1ccc(F)cc1 [Haloperidol] | + (a “+” to indicate whether a particular T2R receptor showed a positive response to a particular API) |  | + (a “+” to indicate whether a particular T2R receptor showed a positive response to a particular API)
14 | CN1CCC(C(=O)c2cccc(NC(=O)c3c(F)cc(F)cc3F)n2)CC1 [Lasmitidan] | + (a “+” to indicate whether a particular T2R receptor showed a positive response to a particular API) | + (a “+” to indicate whether a particular T2R receptor showed a positive response to a particular API) | 
15 | CCN(CC)CC(=O)Nc1c(C)cccc1C [Lidocaine] | + (a “+” to indicate whether a particular T2R receptor showed a positive response to a particular API) |  | + (a “+” to indicate whether a particular T2R receptor showed a positive response to a particular API)
16 | CCN1CCN(Cc2ccc(Nc3ncc(F)c(-c4cc(F)c5nc(C)n(C(C)C)c5c4)n3)nc2)CC1 [Abamaciclib] |  | + (a “+” to indicate whether a particular T2R receptor showed a positive response to a particular API) | 
17 | O=C(O)c1cn(C2CC2)c2cc(N3CCNCC3)c(F)cc2c1=O [Ciprofloxacin] |  | + (a “+” to indicate whether a particular T2R receptor showed a positive response to a particular API) | 
18 | Cn1c(=O)c2c(ncn2C)n(C)c1=O [Caffeine] | + (a “+” to indicate whether a particular T2R receptor showed a positive response to a particular API) | + (a “+” to indicate whether a particular T2R receptor showed a positive response to a particular API) | + (a “+” to indicate whether a particular T2R receptor showed a positive response to a particular API)
19 | C=CCC1(C(C)CCC)C(=O)NC(=O)NC1=O (stereo not drawn) [Secobarbital Sodium] |  |  | + (a “+” to indicate whether a particular T2R receptor showed a positive response to a particular API)
20 | O=C(O)Cc1ccccc1Nc1c(Cl)cccc1Cl [Diclofenac] |  |  | + (a “+” to indicate whether a particular T2R receptor showed a positive response to a particular API)
21 | CCC1=C(C)CN(C(=O)NCCc2ccc(S(=O)(=O)NC(=O)N[C@H]3CC[C@H](C)CC3)cc2)C1=O [Glimepiride] |  |  | + (a “+” to indicate whether a particular T2R receptor showed a positive response to a particular API)
22 | COc1ccc(C(CN(C)C)C2(O)CCCCC2)cc1 (stereo not drawn) [Venlafaxine] | + (a “+” to indicate whether a particular T2R receptor showed a positive response to a particular API) | + (a “+” to indicate whether a particular T2R receptor showed a positive response to a particular API) | 
23 | C[C@]12CCC(=O)C=C1CC[C@@H]1[C@@H]2[C@@H](O)C[C@@]2(C)[C@H]1CC[C@]2(O)C(=O)CO [Hydrocortisone] |  | + (a “+” to indicate whether a particular T2R receptor showed a positive response to a particular API) | 
24 | NS(=O)(=O)c1cc2c(cc1Cl)NCNS2(=O)=O [Hydrochlorothiazide] | + (a “+” to indicate whether a particular T2R receptor showed a positive response to a particular API) | + (a “+” to indicate whether a particular T2R receptor showed a positive response to a particular API) | 
25 | c1ccc(CC2=NCCN2)cc1 [Tolazoline] | + (a “+” to indicate whether a particular T2R receptor showed a positive response to a particular API) | + (a “+” to indicate whether a particular T2R receptor showed a positive response to a particular API) | 
